The target of data set [1] is T1, human RXFP3 (Homo sapiens, UniProt Q9NSD7).
T1 construct: expressed in transfected cells
T1 sequence (Q9NSD7 1-469): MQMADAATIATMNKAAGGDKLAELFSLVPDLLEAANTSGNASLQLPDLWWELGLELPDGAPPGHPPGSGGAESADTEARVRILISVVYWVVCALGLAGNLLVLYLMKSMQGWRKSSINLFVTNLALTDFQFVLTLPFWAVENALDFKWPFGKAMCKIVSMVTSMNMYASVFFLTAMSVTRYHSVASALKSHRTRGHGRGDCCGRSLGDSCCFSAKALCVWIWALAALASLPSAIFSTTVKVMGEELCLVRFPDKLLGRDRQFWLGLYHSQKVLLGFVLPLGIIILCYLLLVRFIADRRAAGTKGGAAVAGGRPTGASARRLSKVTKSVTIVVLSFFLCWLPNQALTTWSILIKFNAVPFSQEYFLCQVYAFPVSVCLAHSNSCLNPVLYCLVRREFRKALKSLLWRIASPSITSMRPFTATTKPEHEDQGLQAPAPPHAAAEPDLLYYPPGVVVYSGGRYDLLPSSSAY
The experiment in a line: RXFP3 competition binding assay with Eu-DTPA-R3/I5. As to conditions: for binding affinity for RXFP3 (in words): RXFP3-expressing cells, Eu-labelled H3/INSL5 chimeric polypeptide.

For data set [2], the target named is T1, human RXFP3. Nature of the data set: cAMP activity assay (pCRE β-galactosidase reporter, forskolin-induced) in CHO cells transfected with RXFP3. Format: cell-based. The settings on record: for agonist activity at RXFP3 (inhibition of cAMP activity): RXFP3-expressing cells, 5 μM forskolin; for antagonist activity at RXFP3 (rescue of cAMP levels): in the presence of 10 nM H3 relaxin. How it is done:
For activity determination, a cAMP activity assay was used. CHO cells were cultured in a 1:1 mixture of Dulbecco's modified Eagle's medium and HAMNS-F12 medium supplemented with 10% fetal bovine serum, 1% L-glutamine and 1% penicillin/strepicillin and cultivated in a humidified chamber with 5% CO2 at 37.8° C. 20 000 cells per well were seeded into a pre-coated poly-L lysine 96-wells plate. Cells were incubated over night before being transfected with the mammalian expression vector pcDNA3.1(+)zeo (UMR cDAN Resource Center) carrying human RXFP3 together with a pCRE β-galactosidase reporter plasmid using TransIT-CHO, OptiMEM and CHO-MOJO reagents. Cells were then incubated over night in a humidified chamber with 5% CO2 at 37.8° C. before cAMP assays were performed. […] In brief, the cells were incubated with the peptide for 6 h in a humidified chamber before the media was aspirated off and the cells were frozen at −80° C. To develop the results, the cells were lysed by addition of 25 μl buffer A (5 ml 10 mM sodium phosphate buffer, pH 8.0, 1 ml 0.2 mM MgSO4 and 50 μl 0.01 mM MnCl2 in 44 ml H2O) to each well and incubated on a shaker for 10 min at room temperature before addition of 100 μl Buffer B (5 ml 100 mM sodium phosphate buffer, pH 8.0, 1 ml 2 mM MgSO4, 50 μl 0.1 mM MnCl2, 2.5 ml 0.5% Triton X-100 and 0.16 ml 40 mM β-mercaptoethanol in 41.3 ml H2O) followed by a 10 min incubation. The substrate, chlorophenol red-β-D-galactopyranoside (CPRG), was then added to each well and the reaction was left at room temperature until a absorbance of <1 AU at 570 nm was reached.

Data set [3] addresses T2, human RXFP1 (Homo sapiens, UniProt Q9HBX9).
T2 construct: expressed in transfected cells; host or cells: HEK-293T
T2 sequence (Q9HBX9 1-757): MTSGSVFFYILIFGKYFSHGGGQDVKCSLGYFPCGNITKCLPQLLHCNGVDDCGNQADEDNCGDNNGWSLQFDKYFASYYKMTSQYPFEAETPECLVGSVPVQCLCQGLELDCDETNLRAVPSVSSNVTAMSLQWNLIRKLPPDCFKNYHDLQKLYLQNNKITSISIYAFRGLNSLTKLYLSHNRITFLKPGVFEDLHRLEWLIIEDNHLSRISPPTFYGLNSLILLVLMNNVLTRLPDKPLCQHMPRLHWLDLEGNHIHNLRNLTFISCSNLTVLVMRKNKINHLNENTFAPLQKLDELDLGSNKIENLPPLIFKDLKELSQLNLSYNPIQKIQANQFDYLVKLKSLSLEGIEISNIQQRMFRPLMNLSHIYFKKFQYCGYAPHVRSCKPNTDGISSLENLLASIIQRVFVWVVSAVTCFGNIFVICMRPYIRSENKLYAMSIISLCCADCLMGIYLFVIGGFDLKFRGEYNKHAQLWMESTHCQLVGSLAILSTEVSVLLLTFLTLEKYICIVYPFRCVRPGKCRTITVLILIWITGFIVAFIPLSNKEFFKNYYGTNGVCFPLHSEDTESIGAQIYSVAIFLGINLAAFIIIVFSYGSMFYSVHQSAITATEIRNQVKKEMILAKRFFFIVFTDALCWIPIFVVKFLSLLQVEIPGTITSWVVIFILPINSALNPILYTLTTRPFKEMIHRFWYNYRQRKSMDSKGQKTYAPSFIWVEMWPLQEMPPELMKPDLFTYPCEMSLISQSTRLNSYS
The experiment in a line: RXFP1 competition binding assay with Eu-DTPA-H2 relaxin. The settings on record: HEK-293T cells transfected with RXFP1, Eu-DTPA-H2 relaxin. How it is done: Binding assays were carried out as follows. HEK-293T cells stably transfected with human RXFP3 were plated out onto pre-coated poly-L-lysine 96-well viewplates with a density of 50 000 cells per well. Media was aspirated off and the cells were washed with PBS before different concentrations of peptide diluted in binding buffer (100 mM HEPES, pH 7.6, 5 mM KCl, 1.3 mM MgSO4, 1.5 mM NaOAc, 1 mM EDTA and 10 mM glucose) and 300 μM of Eu-DTPA-R3/15 was added to each well. The cells were incubated at room temperature for 60 min before the peptide solution was aspirated off and the cells washed with PBS. DELFIA enhancement solution was then added and the cells incubated for a further 30-60 min at room temperature, after which the fluorescence was measured using a time resolved fluorometer with excitation at 340 nm an emission at 614 nm.
Similarly, the B1-22R single chain polypeptide was tested for its ability to activate RXFP1 or antagonise the action of H2 relaxin at this receptor. To do so, binding assays were carried out essentially as described above in Example 2 except using HEK-293T cells transfected with RXFP1 and 300 μM of Eu-DTPA-H2 relaxin.

Data set [4] concerns the target T3, RXFP4 (Homo sapiens, UniProt Q8TDU9).
T3 construct: expressed in transfected cells; host or cells: RXFP4-expressing cells
Nature of the data set: cAMP activity assay in RXFP4-expressing cells. It is filed as cell-based.

The test system of data set [5] is rats. It is filed as in vivo, rat. The settings on record: 10 μg, 0 to 45 minutes post administration, vs vehicle. An excerpt: The inventors also carried out experiments to determine if the effects may be due to disruption in locomotor skills.
Data set [6] relates to alcohol-preferring (iP) rats. Nature of the data set: Operant alcohol self-administration in alcohol-preferring (iP) rats. It is filed as in vivo, rat. As to conditions: 10% ethanol, FR3, 3 μg, 10 μg or 30 μg via lateral cerebral ventricle cannula, vs normal and vehicle responding. On the procedure: Rats were trained to stably administer 10% ethanol during daily operant session (n=18 rats) and then implanted with guide cannulae aimed at the lateral cerebral ventricle. Following a 7 day recovery period, the rats were re-stabilised on alcohol self-administration under fixed-ratio 3 (FR3) conditions and the effect of B1-22R was examined.
Rats were administered 3 μg, 10 μg or 30 μg of the B1-22R antagonist. […] The effect observed was dose-dependent.

Setting [7] is: HEK-293T cells stably transfected with human RXFP3, Eu-DTPA-R3/I5 tracer, n = 3.
Where [8] appears, read: HEK-293T cells stably transfected with human RXFP3, Eu-DTPA-R3/I5 tracer, n = 3, read-out: pIC50 (n = 3), binding affinities of single chain relaxin polypeptides for RXFP3 (converted).

“Also recorded” adds a separate entry of the source. Read-outs that look alike come from different tables or passages of the source. Where no end group is shown, it is not given here.

T3 sequence (Q8TDU9 whole entry, species assumed): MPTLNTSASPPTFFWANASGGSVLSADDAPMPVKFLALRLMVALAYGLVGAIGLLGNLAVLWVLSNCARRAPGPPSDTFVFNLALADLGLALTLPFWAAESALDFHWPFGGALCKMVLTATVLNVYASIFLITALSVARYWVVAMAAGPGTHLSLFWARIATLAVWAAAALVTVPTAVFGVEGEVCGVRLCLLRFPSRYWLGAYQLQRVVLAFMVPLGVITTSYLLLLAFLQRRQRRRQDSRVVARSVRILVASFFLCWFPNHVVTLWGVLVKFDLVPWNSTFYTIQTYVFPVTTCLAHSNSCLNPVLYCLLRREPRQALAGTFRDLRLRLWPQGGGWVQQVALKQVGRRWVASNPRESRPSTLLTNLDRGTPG

With RAAPYGVRLSGREFIRAVIFTS [H3 B1-22], the “pIC50 (n = 3), binding affinities of single chain relaxin polypeptides for RXFP3” value in data set [1] (setting [7]) is “No activity”. For the same substance, the “binding affinity for RXFP3 (in words)” value in data set [1] is recorded as “significantly less efficient in binding this receptor”.
Regarding H-APYGVRLSGREFIRAVIFTSR-NH2 [H3 B3-22R], the “agonist activity at RXFP3 (inhibition of cAMP activity)” value in data set [2] is reported as “failed to show any agonist activity”. Besides, in data set [1] (setting [8]), the IC50 is 195 nM. Moreover, the “binding affinity for RXFP3 (in words)” value in data set [1] is recorded as “binding affinities for RXFP3 similar to that of B1-22R”.
In the case of “H-AAPYGVRLSGREFIRAVIFTSR-NH2 [H3 B2-22R]”, the “agonist activity at RXFP3 (inhibition of cAMP activity)” value in data set [2] is on record as “failed to show any agonist activity”. In addition, the IC50 in data set [1] (setting [8]) was 87.1 nM. Besides, the “binding affinity for RXFP3 (in words)” value in data set [1] is listed as “binding affinities for RXFP3 similar to that of B1-22R”.
For the substance VRLSGREFIRAVIFTSR [H3 B7-22R], in data set [2], the “agonist activity at RXFP3 (inhibition of cAMP activity)” value was “failed to show any agonist activity”. The “pIC50 (n = 3), binding affinities of single chain relaxin polypeptides for RXFP3” value in data set [1] (setting [7]) is “No activity”. The “binding affinity for RXFP3 (in words)” value in data set [1] is “failed to bind RXFP3 at any detectable level”.
Regarding H-YGVRLSGREFIRAVIFTSR-NH2 [H3 B5-22R], the “agonist activity at RXFP3 (inhibition of cAMP activity)” value in data set [2] is “failed to show any agonist activity”. In addition, the IC50 in data set [1] (setting [8]) was 427 nM. In addition, in data set [1], the “binding affinity for RXFP3 (in words)” value is reported as “binding affinities for RXFP3 similar to that of B1-22R”.
As for “H-RAAPYGVRLSGREFIRAVIFTSGGSRW-OH [H3 B-chain C10/22S, reference compound]”, the “binding affinity for RXFP3 (in words)” value in data set [1] was “significantly less efficient in binding this receptor”.
In the case of “H-RAAPYGVRLSGREFIRAVIFTSR-NH2 [H3 B1-22R]”, the “affinity for the RXFP1 receptor” value in data set [3] is listed as “very poor affinity”. Further, in data set [2], the “agonist activity at RXFP3 (inhibition of cAMP activity)” value was “no such inhibition” and the “antagonist activity at RXFP3 (rescue of cAMP levels)” value (shortened to “antagonist activity at RXFP3”) is “rescued cAMP levels towards 100%”. The “antagonist activity at RXFP3” value in data set [2] (listed as H1-B22R) is listed as “greatest antagonist activity”. Further, the IC50 in data set [1] was 17.8 nM. Besides, the “agonist activity at RXFP4” value in data set [4] (RXFP4-expressing cells, cAMP) is reported as “no agonist activity”. For the same substance, in data set [4] (block of INSL5 or H3 relaxin stimulated RXFP4 activation), the “antagonist activity at RXFP4” value is recorded as “fails to show any observable antagonist activity”. In data set [5], the “locomotor skills (floor plane moves or floor plane distance)” value is recorded as “No significant difference”. Besides, the ethanol lever presses result in data set [6] is “significant decrease in ethanol lever presses; also recorded: dose-dependent”.
In the case of H-PYGVRLSGREFIRAVIFTSR-NH2 [H3 B4-22R], the “agonist activity at RXFP3 (inhibition of cAMP activity)” value in data set [2] is on record as “failed to show any agonist activity”. Also, the IC50 in data set [1] (setting [8]) was 219 nM. For the same substance, the “binding affinity for RXFP3 (in words)” value in data set [1] is recorded as “binding affinities for RXFP3 similar to that of B1-22R”.
Regarding “RAAPYGVRLSGREFIRAVIFTSGGSRW-OH [H3 B-chain C10/22S, reference compound]”, the IC50 in data set [1] (setting [8]) was 2510 nM.
Consider “H-RAAPYGVRLSGREFIRAVIFTSR-OH [H3 B1-22R Acid]”, for which the “agonist activity at RXFP3 (inhibition of cAMP activity)” value in data set [2] is recorded as “failed to show any agonist activity”. In addition, the IC50 in data set [1] (setting [8]) was 347 nM. Also, the “binding affinity for RXFP3 (in words)” value in data set [1] is given as “binding affinities for RXFP3 similar to that of B1-22R”.
H-GVRLSGREFIRAVIFTSR-NH2 [H3 B6-22R]: the “agonist activity at RXFP3 (inhibition of cAMP activity)” value in data set [2] is “failed to show any agonist activity”. Moreover, the IC50 in data set [1] (setting [8]) is 468 nM. Besides, the “binding affinity for RXFP3 (in words)” value in data set [1] is given as “binding affinities for RXFP3 similar to that of B1-22R”.
With “H-RAAPYGVRLAGREFIRAVIFTAR-NH2 [H3 B1-22R C10/22A]”, in data set [2], the “agonist activity at RXFP3 (inhibition of cAMP activity)” value was “failed to show any agonist activity” and the “antagonist activity at RXFP3” value is given as “lowest antagonist activity”. Also, the IC50 in data set [1] (setting [8]) was 148 nM. In addition, in data set [1], the “binding affinity for RXFP3 (in words)” value is listed as “binding affinities for RXFP3 similar to that of B1-22R”.

The values are drawn from patent US9359422B2, “Single chain relaxin polypeptides” (The University of Queensland, priority 2010, dated 2016).
